In brackets after ≈: the same amount, converted by molar mass. Several values for one entry are separate records, joined by “and”; a condition that tells them apart may be missing. Equal values may be shown once. Entries after “also recorded” stand apart in the source; their conditions may differ. Read-outs that look alike come from different tables or passages of the source.
Tests used:
human erythrocytes [1] = assay: Interference with hemagglutination in the viral HA assay
[2] = system: NA of S. pneumoniae DSM20566 (precipitated bacterial proteins); assay: Hemagglutination (HA)-based NA inhibition assay, bacterial; type: biochemical, Streptococcus pneumoniae; conditions: pure compounds; total protein of DSM20566; human erythrocytes; highest tested 100 μM
Description: Inhibition of pneumococcal NAs circumvents hemagglutination.

[3] = target: influenza virus A/WSN/33 NA (Influenza A virus, UniProt P03470); assay: biochemical
Chain of influenza virus A/WSN/33 NA (P03470 whole entry, looked up): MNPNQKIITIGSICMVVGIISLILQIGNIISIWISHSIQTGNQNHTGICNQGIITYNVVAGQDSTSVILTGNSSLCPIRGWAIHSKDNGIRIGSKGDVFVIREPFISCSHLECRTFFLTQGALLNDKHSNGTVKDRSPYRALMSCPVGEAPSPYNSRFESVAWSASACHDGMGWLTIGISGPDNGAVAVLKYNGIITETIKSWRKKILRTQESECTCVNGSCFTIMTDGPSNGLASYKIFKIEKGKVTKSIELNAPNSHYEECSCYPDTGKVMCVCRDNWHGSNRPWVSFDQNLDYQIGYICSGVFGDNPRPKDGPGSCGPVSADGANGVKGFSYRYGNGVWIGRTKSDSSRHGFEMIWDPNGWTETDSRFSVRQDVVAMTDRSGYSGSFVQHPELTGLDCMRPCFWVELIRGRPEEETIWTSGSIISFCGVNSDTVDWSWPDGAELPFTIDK

in vitro [4] = conditions: dog
[5] = system: IAV Jena/8178/2009 (8178/09); assay: microbe, parasite or virus in culture; type: cell-based, Influenza A virus; conditions: 48 h, read-out: IC50 of CPE IAV 8178/09
in vitro [6] = conditions: human
human erythrocytes [7] = system: human erythrocytes
human erythrocytes [8] = system: human erythrocytes; remark: listed apart in the source
influenza virus A/WSN/33 = assay: microbe, parasite or virus in culture; type: cell-based; conditions: read-out: IC50 of CPE assay (A/WSN/33)
[9] = system: S. pneumoniae DSM20566 biofilm; assay: Scanning electron microscopy of pneumococcal biofilm on glass slides; type: cell-based, Streptococcus pneumoniae; conditions: 10 μM, 7 days
[10] = system: human lung carcinoma cells (A549)
[11] = system: Madin-Darby canine kidney (MDCK) cells
[12] = system: Madin-Darby canine kidney (MDCK) cells; assay: Cytotoxicity in MDCK cells; conditions: read-out: CC50 in MDCK cells; pure compounds; 72 h; highest tested 100 μM
[13] = system: human lung carcinoma cells (A549); assay: Cytotoxicity in A549 cells; conditions: read-out: CC50 in A549 cells; pure compounds; 72 h; highest tested 100 μM
[14] = Cytotoxicity in MDCK cells; conditions: dog
[15] = Cytotoxicity in A549 cells; conditions: human
[16] = system: IAV 8178/09 in A549 cells; type: cell-based, Influenza A virus; conditions: 50 µM
[17] = treatment from 3 h after inoculation
[18] = pure compounds, human erythrocytes, 2 h at 4 °C

Row | Molecule | sample concentrations provoking prevention of virus-induced hemagglutination in viral HA assay (human erythrocytes [1]) | MIC in HA assay against S. pneumoniae DSM20566 [2] | IC50 [3] [µM] | CC50 at 72 h (in vitro [4]) [µM] | IC50 ([5]; Influenza A virus, MDCK) [µM] | CC50 at 72 h (in vitro [6]) [µM] | sample concentrations provoking induction of erythrocyte lysis in bacterial HA assay (human erythrocytes [7]) | sample concentrations provoking induction of erythrocyte lysis in viral HA assay (human erythrocytes [8]) | IC50 (influenza virus A/WSN/33; WSN, MDCK) [µM] | sample concentrations provoking prevention of virus-induced hemagglutination in viral HA assay (human erythrocytes [1]; [18]) | other results
1 | O=c1c(O)c(-c2ccc(O)cc2O)oc2cc(O)cc(O)c12 [Compound 16, morin] | no | 23.0 ± 11.8 µM (≈ 6.95 µg/mL) | 62 ± 8.03 | > 100 | 70.1 ± 9.83 | > 100 | no | no | > 100 | – | –
2 | CCC(CC)O[C@@H]1C=C(C(=O)O)C[C@H](N)[C@H]1NC(C)=O [Oseltamivir carboxylate GS4071, reference compound] | – | 2.08 ± 1.25 µM (≈ 0.591 µg/mL) | – | – | – | – | – | – | – | – | biofilm formation by scanning electron microscopy [9, 17]: did not impair biofilm formation
3 | COc1c(O)cc2c(c1O)C(=O)CC(c1ccccc1)O2 (stereo not drawn) [Compound 8, 2,3-dihydro-5,7-dihydroxy-6-methoxy-2-phenyl-4H-1-benzopyran-4-one] | – | – | > 100 | > 100 | > 100 | > 100 | no | no | > 100 | no | –
4 | sanggenon G [Compound 4] | – | 5.4 µM and 5.44 ± 3.95 µM | – | – | – | – | 31.6 to 100 µM | – | – | 3.1 to 100 µM | sample concentrations provoking induction of erythrocyte lysis in viral HA assay (human erythrocytes [1]; [18]): 10 to 100 µM; IC50 ([3]; read-out: IC50 in FL assay (influenza virus A/WSN/33 NA)): 61.7 ± 17.8 µM; CC50 [10]: 72.9 ± 17.2 µM; IC50 [5]: 8.78 ± 0.89 µM; CC50 [11]: > 100 µM; IC50 (influenza virus A/WSN/33): 15.2 ± 14 µM
5 | COc1cc([C@H]2Oc3cc([C@H]4Oc5cc(O)cc(O)c5C(=O)[C@@H]4O)ccc3O[C@@H]2CO)ccc1O (racemic) [Compound 17, (±)-silybin] | – | – | 9.18 ± 1.5 | > 100 | > 100 | > 100 | no | no | > 100 | no | –
6 | sanggenon D [Compound 3] | – | 31.6 µM and 31.6 ± 0.00 µM | – | – | – | – | 100 µM | – | – | no | sample concentrations provoking induction of erythrocyte lysis in viral HA assay (human erythrocytes [1]; [18]): 31.6 to 100 µM; CC50 [12]: 99 ± 8.7 µM; CC50 [13]: 79.9 ± 11.2 µM
7 | O=c1cc(-c2ccc(O)c(O)c2)oc2cc(O)cc(O)c12 [Compound 15, luteolin] | no | 23.0 ± 11.8 µM (≈ 6.58 µg/mL) | > 100 | – | – | – | – | – | – | – | CC50 at 72 h [14]: 23 ± 0.18 µM; CC50 at 72 h [15]: > 100 µM
8 | O=c1cc(-c2ccc(O)c(O)c2O)oc2cc(O)cc(O)c12 [Compound 14, 2',3',4',5,7-pentahydroxyflavone] | no | 72.6 ± 37.5 µM (≈ 21.9 µg/mL) | > 100 | > 100 | > 100 | > 100 | no | no | > 100 | – | –
9 | CC(C)=CCC/C(C)=C/Cc1c(O)ccc([C@@H]2CC(=O)c3c(O)cc(O)cc3O2)c1O [Compound 5, sanggenol A] | 100 or no | 31.6 µM and 31.6 ± 0.00 µM | 65.5 ± 9.29 | 42.1 ± 4.45 | – | > 100 | – | – | 35.4 ± 14.6 | – | viral yield in A549 cells in the presence of NanA of DSM20566 [16]: 31.8 ± 4.5%; virus yield in A549 cells in the absence of NanA [16]: 5.1 ± 1.8%; sample concentrations provoking induction of erythrocyte lysis in bacterial HA assay (human erythrocytes [7]; human): 100 µM; sample concentrations provoking induction of erythrocyte lysis in viral HA assay (human erythrocytes [8]; human): 100 or no
10 | COc1ccc(C2CC(=O)c3c(O)cc(O)cc3O2)cc1O (racemic) [Compound 10, (±)-hesperetin] | no | – | > 100 | – | > 100 | – | no | no | > 100 | – | CC50 (in vitro [4]): > 100 µM; CC50 (in vitro [6]): > 100 µM
11 | O=C1CC(c2ccc(O)c(O)c2)Oc2cc(O)cc(O)c21 (racemic) [Compound 11, (±)-eriodictyol] | no | 45.3 ± 30.6 µM (≈ 13.1 µg/mL) | > 100 | – | 78.3 ± 5.72 | – | no | no | 68.4 ± 12.9 | – | CC50 at 72 h [14]: > 100 µM; CC50 at 72 h [15]: > 100 µM
12 | COc1c(CC=C(C)C)cc([C@@H]2CC(=O)c3c(O)cc(O)cc3O2)cc1CC=C(C)C [Compound 27, abyssinone-V 4'-methyl ether] | 3.16 to 100 µM | 7.72 ± 3.53 µM (≈ 3.26 µg/mL) | 33.1 ± 11.7 | 2.29 ± 0.1 | – | > 100 | – | no | – | – | biofilm formation by scanning electron microscopy [9, 17]: completely prevented biofilm formation; also recorded: strong effect; biofilm formation by scanning electron microscopy ([9]; treatment from 6 h after inoculation): no biofilm was formed; biofilm formation by scanning electron microscopy ([9]; treatment from 9 h after inoculation): affected biofilm formation weakly; biofilm formation by scanning electron microscopy ([9]; treatment from 48 h after inoculation): had no effect; viral yield in A549 cells in the presence of NanA of DSM20566 [16]: 7.4 ± 1.2%; virus yield in A549 cells in the absence of NanA [16]: 3.2 ± 1.4%; sample concentrations provoking induction of erythrocyte lysis in bacterial HA assay (human erythrocytes [7]; human): 31.6 to 100 µM
13 | O=C1CC(c2ccc(O)cc2O)Oc2cc(O)cc(O)c21 (stereo not drawn) [Compound 12, 2',4',5,7-tetrahydroxyflavanone] | no | 72.6 ± 37.5 µM (≈ 20.9 µg/mL) | 77.7 ± 5.56 | > 100 | > 100 | > 100 | no | no | 81.3 ± 10.4 | – | –

Reference: paper PMC4891693, “Discovery of prenylated flavonoids with dual activity against influenza virus and Streptococcus pneumoniae” (Scientific Reports, 2016)
